Data reported in publication PMC9457533, “Study on Metronidazole Acid-Base Behavior and Speciation with Ca^2+ for Potential Applications in Natural Waters” (Molecules, 2022).

Experiment: Potentiometric titrations: protonation constants of MNZ in NaCl
Format: physicochemical
Settings: for logβ^H2L: 2H + L = H2L; for logβ^HL: H + L = HL; for logβ average value: I = 0.15 mol L^-1, average of 1H-NMR, UV; for logK^H2L: LH + H = H2L
From the text: The knowledge of the protonation constants of a ligand is crucial to defining the ionization state which influences several characteristics, such as aqueous solubility, and complexation ability. The equilibrium reactions associated with the protonation constant values are the following, where the charges are omitted for simplicity and MNZ was indicated as L: iH + L = HiL β^H^iL(1) H + Hi−1L = HiL K^H^iL(2)
The potentiometric titrations were employed by Metrohm-Titrando 809 automated potentiometer with a combined glass electrode ORION, type Ross 8102SC and a Metrohm Dosino 800 automatic dispenser. The titrations were performed in cells with a capacity of 25 mL, characterized by a double wall inside which thermostated water circulates. The cells were connected to a thermostat model D1-G Haake. During the measurements, pure N2 was bubbled to avoid CO2 and O2 in solution. The system is interfaced to a PC through the Metrohm TIAMO 2.0 software, which automatically acquires the mL/mV pairs. It can control several parameters, such as e.m.f. stability, titrant delivery, and data acquisition. Estimated accuracy of this apparatus is ±0.15 mV and ±0.002 mL for e.m.f. and for readings of titrant volume. The acid-base titrations were carried out first on 25 mL solutions containing L, HCl, and NaCl as supporting electrolytes at different temperatures and ionic strength conditions. Various potentiometric titrations are performed on 25 mL containing Ca^2+-L in different ratios, in NaCl at t = 15, 25, and 37 °C and I = 0.15, 0.5 and […]. The solutions were titrated using standard NaOH solution. A calibration was associated with each measurement by titration with NaOH of a solution containing HCl, NaCl, and H2O, in order to calculate the standard electrode potential (E^0) and the pKw values.
The protonation constant of MNZ (L), formation constant values of Ca^2+(M)-MNZ (L), and titration parameters (analytical concentration of the reagents, standard potential E^0, junction potential) were determined by using BSTAC and STACO programs. LIANA program has provided the parameters characterizing the dependence of the protonation and formation constant values on the temperature and ionic strength. More details on software are present in ref. [59]. ^1H NMR data were processed by HypNMR software, which allows for calculating protonation and formation constant values and the individual chemical shift of species through the observed signals and assuming fast mutual exchange in the NMR time scale. UV-Vis data are processed by the HypSpec program, which allows refining of the protonation and formation constant as well as the molar absorption coefficient values (ε) of the species. The speciation diagrams and the formation percentage of the species are determined by the Hyss program.

[1] = t = 15 °C, I = 0.15 mol L^-1 NaCl
[2] = t = 15 °C, I = 0.5 mol L^-1 NaCl
[3] = t = 15 °C, I = 0.97 mol L^-1 NaCl
[4] = t = 25 °C, I = 0.5 mol L^-1 NaCl
[5] = t = 25 °C, I = 0.96 mol L^-1 NaCl
[6] = t = 37 °C, I = 0.14 mol L^-1 NaCl
[7] = t = 37 °C, I = 0.5 mol L^-1 NaCl
[8] = t = 37 °C, I = 0.96 mol L^-1 NaCl

Cc1ncc([N+](=O)[O-])n1CCO [MNZ, 2-Methyl-5-nitroimidazole-1-ethanol]
logβ^H2L [1]: 14.559(5) ^4 | logβ^H2L [2]: 14.833(4) | logβ^H2L [3]: 14.877(7) | logβ^H2L (t = 25 °C, I = 0.15 mol L^-1 NaCl, potentiometry): 14.130(4) | logβ^H2L [4]: 15.18(4) | logβ^H2L [5]: 15.05(6) | logβ^H2L [6]: 14.27(8) | logβ^H2L [7]: 14.75(8) | logβ^H2L [8]: 14.601(8) | logβ^HL [1]: 12.00(1) ^4 | logβ^HL [2]: 12.180(8) | logβ^HL [3]: 12.12(1) | logβ^HL [4]: 12.51(4) | logβ^HL [5]: 12.22(6) | logβ^HL [6]: 11.88(7) | logβ^HL [7]: 12.14(8) | logβ^HL [8]: 12.000(6) | logβ average value (L + 2H = LH2, t = 25 °C, potentiometry): 14.15(6) | logβ average value (L + H = LH, t = 25 °C, potentiometry): 11.74(2) ^1 | logK^H2L [1]: 2.56 | logK^H2L [2]: 2.653 | logK^H2L [3]: 2.76 | logK^H2L (t = 25 °C, I = 0.15 mol L^-1 NaCl): 2.46 | logK^H2L [4]: 2.67 | logK^H2L [5]: 2.83 | logK^H2L [6]: 2.39 | logK^H2L [7]: 2.61 | logK^H2L [8]: 2.601
